Measured values from paper PMC2928807, “Chitin Synthases from Saprolegnia Are Involved in Tip Growth and Represent a Potential Target for Anti-Oomycete Drugs” (PLoS Pathogens, 2010).
One block for each molecule: values may come before it.

What was measured:
[1] = target: T1, SmCHS2 (chitin synthase 2) (Saprolegnia monoica, UniProt D7NQS9); assay: radiometric chitin synthase assay ([…]-UDP-GlcNAc) on CHAPS membrane extract of recombinant Pichia; Dixon plots; type: biochemical
T1 construct: full-length SmCHS2 (962 amino acids) fused to eGFP at its C-terminus, expressed in Pichia pastoris, CHAPS extract of membranes
T1 sequence (D7NQS9 1-962): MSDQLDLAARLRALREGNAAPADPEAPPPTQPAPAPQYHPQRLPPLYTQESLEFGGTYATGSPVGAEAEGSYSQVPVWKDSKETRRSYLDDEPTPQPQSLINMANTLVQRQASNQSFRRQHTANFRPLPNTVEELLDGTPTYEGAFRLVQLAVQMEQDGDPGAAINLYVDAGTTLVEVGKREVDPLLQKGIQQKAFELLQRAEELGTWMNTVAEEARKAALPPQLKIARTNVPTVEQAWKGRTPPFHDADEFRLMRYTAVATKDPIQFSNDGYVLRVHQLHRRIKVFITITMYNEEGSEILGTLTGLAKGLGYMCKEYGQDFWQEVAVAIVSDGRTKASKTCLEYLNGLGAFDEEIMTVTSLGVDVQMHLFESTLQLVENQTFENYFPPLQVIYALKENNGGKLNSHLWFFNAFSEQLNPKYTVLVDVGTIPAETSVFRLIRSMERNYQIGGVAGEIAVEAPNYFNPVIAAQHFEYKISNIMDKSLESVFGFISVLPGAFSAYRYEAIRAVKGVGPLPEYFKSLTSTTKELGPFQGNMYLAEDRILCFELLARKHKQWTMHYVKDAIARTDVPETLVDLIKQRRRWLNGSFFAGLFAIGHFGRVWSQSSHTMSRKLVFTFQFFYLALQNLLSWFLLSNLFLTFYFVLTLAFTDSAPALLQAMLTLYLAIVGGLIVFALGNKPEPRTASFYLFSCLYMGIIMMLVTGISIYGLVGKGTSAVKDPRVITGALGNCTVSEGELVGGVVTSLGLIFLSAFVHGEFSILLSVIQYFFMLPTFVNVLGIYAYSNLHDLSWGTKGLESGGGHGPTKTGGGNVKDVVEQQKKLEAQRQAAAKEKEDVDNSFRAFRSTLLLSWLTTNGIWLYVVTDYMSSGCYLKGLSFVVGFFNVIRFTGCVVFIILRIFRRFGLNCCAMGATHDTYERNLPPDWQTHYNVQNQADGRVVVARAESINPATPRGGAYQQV

[2] = substrate: CC(=O)N[C@H]1[C@@H](OP(=O)(O)OP(=O)(O)OC[C@H]2O[C@@H](n3ccc(=O)[nH]c3=O)[C@H](O)[C@@H]2O)O[C@H](CO)[C@@H](O)[C@@H]1O; assay: radiometric chitin synthase assay on CHAPS membrane extract of recombinant Pichia; apparent Km; type: biochemical, Saprolegnia monoica

Ki [1]: 4.6 µM
Molecule: C[C@@H]([C@H](N)C(=O)N[C@H](C(=O)O)[C@H]1O[C@@H](n2ccc(=O)[nH]c2=O)[C@H](O)[C@@H]1O)[C@H](O)c1ccc(O)cn1 [nikkomycin Z]

B1: SmCHS2 (chitin synthase 2) (Saprolegnia monoica) (protein)
chain: T1 sequence (D7NQS9 1-962)
notes: full-length SmCHS2 (962 amino acids) fused to eGFP at its C-terminus, expressed in Pichia pastoris, CHAPS extract of membranes
Km [2]: 150+12 µM
